# In patent EP0412158A1, “ONCOSTATIC DRUG” (priority 1987, dated 1988):
# Several values for one entry are separate records, joined by “and”; a condition that tells them apart may be missing. Identical values can stand only once. Like-named read-outs stand apart in the source and are kept apart here. Marks after values point to notes of the source that are not given here.
# Assays:
# Test for acute toxicity = assay type: in vivo, BALB/C mice, nude mice; conditions: result in words
# methyl cholanthrene A = assay: Methyl cholanthrene A tumor, evaluation by elongation of period of survival (Examples 31, 34 and 35); assay type: in vivo, female BALB/C mice; conditions: 100 mg/kg, ip × 9 (D1~D9)
# Protocol: The active compounds, M to 0, mentioned above were severally dissolved in distilled water to obtain aqueous solutions containing the compounds in a fixed concentration of 10 mg/ml. To be specific, to female BALB/C mice (five weeks old) to which methyl cholanthrene A had been transplanted in a ratio of 1.0 x 10^5 cells per mouse, […] for 9 consecutive days to determine the mice's periods of survival. For comparison, mice to which no aqueous solution was administered and mice to which aminonitrosourea was administered were similarly tested.
# breast cancer (MX-1) = assay type: in vivo, female nude mice; conditions: 100 mg/kg ip ×10; for T/C: tumor volume
# Protocol: A patch of breast cancer [cancer cells recommended by National Cancer Institute (NCI) of the U.S.A.] (MX-1) measuring approximately 2 x 2 mm in area was transplanted to each of female nude mice five weeks old. To the mice, an aqueous solution of the aforementioned heteropoly acid salt (Compound M) was administered at a dose of 100 mg/kg once a day by intraperitoneal injection for 10 consecutive days on elapse of 17 days following the transplantation of tumor (ip). For 15 days following the stop of the administration, the volumes of tumor in the mice were measured to evaluate the effect of compound. At ip (x 10), significant suppression of hyperplasia appeared around the 4th day and a strong supression of hyperplasia of cancer was maintained even after 25 days following the completion of transplantation. For comparison, mice to which no aqueous solution was administered were similarly tested.
# human lung cancer (OAT) [1] = assay type: in vivo, female nude mice; conditions: 200 mg/kg ip ×10; for T/C: tumor volume
# Protocol: A patch of human lung cancer [Cancer cells recommended by National Cancer Institute (NCL) of the U.S.A.] (OAT) measuring approximately 2 x 2 mm in area was subcutaneously transplanted to each of female nude mice. An aqueous solution containing the aforementioned heteropoly acid salt (Compound M) in a concentration of 10 mg/ml was administered by intraperitoneal injection (ip) to the mice at a dose of 200 mg/kg once per day for 10 consecutive days following the 12th day of transplantation. For 15 days following the stop of the administration, the volumes of tumor in the mice were measured to evaluate the effect of compound. At ip (x 10), significant suppression of hyperplasia began to appear about the 4th day. Even after completion of the administration 25th day of the transplantation, strong suppression of hyperplasia of cancer of about 50% was maintained. Generally by the NCI standard, a ratio of suppression exceeding 50% is rated as effective. Thus, the compound was confirmed to be effective. For comparison, mice to which no aqueous solution was administered were similarly tested.
# human lung cancer (OAT) [2] = assay type: in vivo, female ICR/cd-1 mice
# Protocol: A patch of human lung cancer [cancer cells recommended by National Cancer Institute (NCI) of the U.S.A.] (OAT) measuring approximately 1 x 1 mm in area was transplanted beneath the hepatic capsule of each of female ICR/cd-1 mice (18 to 20 g) five to six weeks old (SRC method).
# Then, an aqueous solution of 1% by weight of the aforementioned compound M was administered by intraperitoneal injection (ip) at a dose of 100 mg/kg and a dose of 200 mg/kg to the mice once per day for 5 consecutive days. The body weights of the mice and the sizes of tumor in the mice were measured on the 7th day, i.e. after one days interval following the stop of the administration to evaluate the effect of compound.
# MM-46 breast cancer = assay type: in vivo, female C3H/He mice
# Protocol: The aforementioned active compound M was dissolved in distilled water to obtain an aqueous solution containing the compound in a concentration of 10 mg/ml. To female C3H/He mice (five weeks old) to which MM-46 breast cancer was transplanted in a ratio of 1.0 x 10^5 cells per mouse, the aqueous solution was administered intraperitoneally (ip) or orally (po) at a dose of 100 mg and a dose of 200 mg per kg of body weight for 9 consecutive days to measure the periods of the mices survival. For comparison, mice to which no aqueous solution was administered was similarly tested.
substance,measurement,setting,value
[NH3C3H7(iso)]s (Mo7O24] • 3H2O [Compound A],acute toxicity,"Test for acute toxicity; BALB/C mice, dose of 3,600 mg/kg",no toxicity
same,acute toxicity,"Test for acute toxicity; nude mice, dose of 2,000 mg/kg ip",no toxicity
Nas [IMo6O24] • 34H2O [Compound M],Average number of days of survival ±SE,methyl cholanthrene A,42.57±5.77(7) days
same,ILS,methyl cholanthrene A,61.3%
same,"Average volume of tumor, Average ±SE",breast cancer (MX-1); day 1,333.2±25.0 mm^3
same,"Average volume of tumor, Average ±SE",breast cancer (MX-1); day 2,404.7±16.5 mm^3
same,T/C,breast cancer (MX-1); day 2,90.9%
same,"Average volume of tumor, Average ±SE",breast cancer (MX-1); day 3,510.0±38.8 mm^3
same,T/C,breast cancer (MX-1); day 3,88.6%
same,"Average volume of tumor, Average ±SE",breast cancer (MX-1); day 4,575.0±14.4 mm^3
same,T/C,breast cancer (MX-1); day 4,85.9* %
same,"Average volume of tumor, Average ±SE",breast cancer (MX-1); day 5,555.2±44.7 mm^3
same,T/C,breast cancer (MX-1); day 5,74.7** %
same,"Average volume of tumor, Average ±SE",breast cancer (MX-1); day 6,565.5±36.7 mm^3
same,T/C,breast cancer (MX-1); day 6,76.1** %
same,"Average volume of tumor, Average ±SE",breast cancer (MX-1); day 7,616.7±20.3 mm^3
same,T/C,breast cancer (MX-1); day 7,64.3 **** %
same,"Average volume of tumor, Average ±SE",breast cancer (MX-1); day 8,786.0±40.0 mm^3
same,T/C,breast cancer (MX-1); day 8,75.4*** %
same,"Average volume of tumor, Average ±SE",breast cancer (MX-1); day 9,869.0±33.2 mm^3
same,T/C,breast cancer (MX-1); day 9,63.6*** %
same,"Average volume of tumor, Average ±SE",breast cancer (MX-1); day 10,957.9±38.1 mm^3
same,T/C,breast cancer (MX-1); day 10,64.8*** %
same,"Average volume of tumor, Average ±SE",breast cancer (MX-1); day 11,1092.7±32.4 mm^3
same,T/C,breast cancer (MX-1); day 11,69.5*** %
same,"Average volume of tumor, Average ±SE",breast cancer (MX-1); day 15,1540.5±106.6 mm^3
same,T/C,breast cancer (MX-1); day 15,61.7** %
same,"Average volume of tumor, Average ±SE",breast cancer (MX-1); day 18,1821.0±127.4 mm^3
same,T/C,breast cancer (MX-1); day 18,61.5*** %
same,"Average volume of tumor, Average ±SE",breast cancer (MX-1); day 21,2182.0±148.6 mm^3
same,T/C,breast cancer (MX-1); day 21,64.5*** %
same,"Average volume of tumor, Average ±SE",breast cancer (MX-1); day 25,2671.7±154.5 mm^3
same,T/C,breast cancer (MX-1); day 25,73.0** %
same,suppression of hyperplasia of cancer,"human lung cancer (OAT) [1]; after completion of the administration, 25th day",about 50%
same,"Volume of tumor, Average value±SE",human lung cancer (OAT) [1]; day 1,457.6±59.3 mm3
same,"Volume of tumor, Average value±SE",human lung cancer (OAT) [1]; day 2,501.7±32.9 mm3
same,T/C,human lung cancer (OAT) [1]; day 2,65.2* %
same,"Volume of tumor, Average value±SE",human lung cancer (OAT) [1]; day 3,617.0±165.7 mm3
same,T/C,human lung cancer (OAT) [1]; day 3,58.3%
same,"Volume of tumor, Average value±SE",human lung cancer (OAT) [1]; day 4,610.0±118.1 mm3
same,T/C,human lung cancer (OAT) [1]; day 4,40.9** %
same,"Volume of tumor, Average value±SE",human lung cancer (OAT) [1]; day 5,711.2±109.2 mm3
same,T/C,human lung cancer (OAT) [1]; day 5,40.8** %
same,"Volume of tumor, Average value±SE",human lung cancer (OAT) [1]; day 6,1003.6±188.6 mm3
same,T/C,human lung cancer (OAT) [1]; day 6,39.9** %
same,"Volume of tumor, Average value±SE",human lung cancer (OAT) [1]; day 7,1033.6±121.5 mm3
same,T/C,human lung cancer (OAT) [1]; day 7,26.0** %
same,"Volume of tumor, Average value±SE",human lung cancer (OAT) [1]; day 8,1257.8±166.2 mm3
same,T/C,human lung cancer (OAT) [1]; day 8,27.7** %
same,"Volume of tumor, Average value±SE",human lung cancer (OAT) [1]; day 12,2366.6±364.0 mm3
same,T/C,human lung cancer (OAT) [1]; day 12,41.6** %
same,"Volume of tumor, Average value±SE",human lung cancer (OAT) [1]; day 15,4493.2±562.2 mm3
same,T/C,human lung cancer (OAT) [1]; day 15,48.0** %
same,"Volume of tumor, Average value±SE",human lung cancer (OAT) [1]; day 19,5735.0±1038.1 mm3
same,T/C,human lung cancer (OAT) [1]; day 19,43.3** %
same,"Volume of tumor, Average value±SE",human lung cancer (OAT) [1]; day 22,8493.2±1352.2 mm3
same,T/C,human lung cancer (OAT) [1]; day 22,54.8** %
same,"Volume of tumor, Average value±SE",human lung cancer (OAT) [1]; day 25,9672.6±1638.0 mm3
same,T/C,human lung cancer (OAT) [1]; day 25,53.2** %
same,T/C,"human lung cancer (OAT) [2]; 100 mg/kg, IP 1~6 (except for 4)",77.4%
same,Tumorous activity T7/T0,"human lung cancer (OAT) [2]; 100 mg/kg, IP 1~6 (except for 4), group mean",2.00±0.20
same,Tumorous activity T7/T0,"human lung cancer (OAT) [2]; 100 mg/kg, IP 1~6 (except for 4), individual mice",2.25 and 1.60 and 2.15
same,Tumorous activity T7,"human lung cancer (OAT) [2]; 100 mg/kg, IP 1~6 (except for 4), size of tumor on 7th day, individual mice","22.5 omu and 16.0 omu and 21,5 omu"
same,antineoplastic activity,human lung cancer (OAT) [2]; result in words,strong antineoplastic activity
same,% ILS,MM-46 breast cancer; 100 mg/kg/day ip×9,100.9%
same,(column without head: number of mice/total number of mice),MM-46 breast cancer; 100 mg/kg/day ip×9,1/7
same,Average days of survival ±SE,MM-46 breast cancer; 100 mg/kg/day ip×9,55.1±8.7(7) days
same,% ILS,MM-46 breast cancer; 200 mg/kg/day po×9,59.7%
same,(column without head: number of mice/total number of mice),MM-46 breast cancer; 200 mg/kg/day po×9,0/6
same,Average days of survival ±SE,MM-46 breast cancer; 200 mg/kg/day po×9,43.8±3.9(6) days
